Test results published in patent publication US20230097992A1, “BIVALENT EGF FUSION TOXINS” (The Regents of the University of Colorado, a body corporate, priority 2020, published 2023).
Values joined by “and” are separate entries in the source; they are usually repeats but may differ in a detail not shown here. Equal values may be shown once.

Key:
[1] = test system: HNSCC Cal27 subcutaneous xenografts; experiment: Flank-xenograft solid tumor-bearing NSG mouse model; assay type: in vivo, NSG mice; conditions: Subcutaneous xenograft model; fusion toxin or DT390 50 μg/kg IP, erlotinib 20 mg/kg gavage, once daily for 10 days from day 4
Description: FIGS. 6A-6D presents the data from in vivo efficacy analysis of the human EGF fusion toxins against subcutaneous xenografts in NSG mice from two animal studies. FIG. 6A depicts the survival curve for NSG mice injected with Cal27 cells. […] FIGS. 6B-D depict tumor volume and weight data from the second study performed with a second cohort of NSG mice. […] Mice were euthanized on day 14 after tumor cell injection, when the first mouse in the DT390 group reached the end point. FIG. 6B: Tumor volumes were measured periodically, and the growth kinetics of the four groups were plotted. FIG. 6B depicts the tumor growth kinetics for a period of 14 days. FIG. 6C presents a bar graph representing the tumor weights at day 14. FIG. 6D depicts images of harvested tumors on day 14. Scale bar: 1 cm. FIGS. 6A-6C: *P<0.05; **P<0.01; ***P<0.001; ****P<0.0001; ns: not significant. The P-values for the survival curves in FIG. 6A were calculated using the Mantel-Cox log-rank test and that for the comparisons in FIGS. 6B and C were calculated using the two-tailed Student t-test (GraphPad Prism 9.0.0).
(§1) HNSCC tumor cells were injected via the following routes: 1) Flank-xenograft solid tumor model: eight million human HNSCC Cal27 tumor cells were subcutaneously injected into the right flank at day 0. The tumor-bearing mice were randomly divided into the four experimental groups when the tumors were palpable at day 3. The tumor volume was measured using digital vernier calipers every 3 days and calculated according to the formula: volume (mm^3)=(length×width×width)/2. 2) Tongue-orthotopic solid tumor model: eight million human HNSCC Cal27 tumor cells in 50 μl DMEM were injected into the tongue at day 0 following isoflurane anesthesia and the tumor-bearing mice were randomly divided into the planned four experimental groups at day 3. 3) Experimental metastasis model: one million human HNSCC Cal27 tumor cells in 200 μl DMEM were intravenously injected at day 0 via tail vein and the tumor-bearing mice were randomly divided into the four experimental groups at day 3.
(§2) Mono-EGF-IT (mEGF-IT), bEGF-IT, or DT390 was intraperitoneally injected (IP) starting at day 4 at 50 μg/kg, once daily for 10 consecutive days. […] The injected animals were observed daily for signs and symptoms of illness and scored at least twice weekly based on the parameters as previously reported (Peraino et al. (2013), J. Immunol. Methods 398-399, 33-43, which is hereby incorporated by reference in its entirety; Wang et al., 2015). The animals were humanely euthanized when the score exceeded the limit or the animal lost more than 15% of its pre-injection body weight. In addition, to assess whether the fusion toxins are toxic to the animals, NSG mice injected with the fusion toxins only were also included as control.
In vivo efficacy of the mEGF-IT and bEGF-IT against HNSCC was assessed using three immunodeficient tumor-bearing NSG mouse models. The first in vivo efficacy model was a flank-xenograft solid tumor-bearing NSG mouse model. Eight million Cal27 tumor cells were injected subcutaneously (SQ) into the right flank at day 0. The EGF fusion toxins were injected intraperitoneally (IP) starting on day 4 at 50 μg/kg daily for 10 consecutive days. […] The reduction of the tumor volumes, weights and sizes (FIGS. 6B-6D) were all consistent with the median survival prolongation.

[2] = test system: HNSCC Cal27 cells injected intravenously (lung metastases); experiment: Experimental lung metastasis NSG mouse model; assay type: in vivo, NSG mice; conditions: for Median survival time: Lung metastasis model, fusion toxin or DT390 50 μg/kg IP, erlotinib 20 mg/kg gavage, once daily for 10 days from day 4
Experimental: FIG. 8A-C presents data from in vivo efficacy analysis of the human EGF fusion toxins using an experimental lung metastasis NSG mouse model. FIG. 8A presents data from a first animal study for survival curve analysis. NSG mice were IV injected with one million human EGFR^+ HNSCC Cal27 cells on day 0. Mice were injected intraperitoneally (IP) with the EGF fusion toxin or DT390 at 50 μg/kg, once daily for 10 consecutive days starting on day 4 after the tumor cell injection. […] The schedule of the fusion toxin and tumor cell injection is pictured in the schematic below the survival curve. The vertical arrows indicate the days on which the tumor cells or the fusion toxins were injected. *P<0.05; **P<0.01; ***P<0.001; ****P<0.0001. The P-values for the survival curves were calculated using the Mantel-Cox log-rank test (GraphPad Prism9.0).
FIGS. 8B and C present data from a second animal study for a pathology analysis. […] The mice were euthanized on day 10 after tumor cell injection when the first mouse in the DT390 group reached the end point. FIG. 8B presents H&E pictures of lung metastases. Metastases are indicated in the upper panels by black arrowheads. Scale bar: 500 μm. The lower panels are higher magnification pictures of the area in black rectangles in the upper panels. […] Error bars indicate standard deviation (SD).
as §1, §2
The third in vivo efficacy model was an experimental metastasis model. One million of HNSCC Cal27 tumor cells were intravenously injected via the tail vein of NSG mice at day 0. The EGF fusion toxins were injected intraperitoneally (IP) starting on day 4 at 50 μg/kg daily for 10 consecutive days. […] To further assess the effects of the fusion toxins on metastasis, the experimental metastasis study was repeated with a second cohort of NSG mice, and all mice were euthanized 10 days after tumor cell inoculation, when the first mouse in the DT390 group reached the end point. The data are depicted in FIGS. 8B and C.

[3] = test system: HNSCC Cal27 tongue-orthotopic tumors; experiment: Tongue-orthotopic tumor-bearing NSG mouse model; assay type: in vivo, NSG mice; conditions: Tongue orthotopic model; fusion toxin or DT390 50 μg/kg IP, erlotinib 20 mg/kg gavage, once daily for 10 days from day 4
Experimental: FIGS. 7A-7C presents the data from two animal studies of in vivo efficacy analysis of the human EGF fusion toxins against tongue squamous cell carcinomas (SCCs) in NSG mice. FIG. 7A presents the data from in vivo efficacy analysis of the human EGF fusion toxins using human EGFR-positive HNSCC Cal27 tongue-orthotopic tumor-bearing NSG mouse model. Eight million human EGFR-positive HNSCC Cal27 cells were injected into the tongue on day 0. Mice were injected intraperitoneally (IP) with the EGF fusion toxin or DT390 at 50 μg/kg, starting on day 4, once daily for 10 consecutive days. […] The schedule of the fusion toxin and tumor cell injection is pictured in the schematic below the survival curve. The vertical arrows indicate the days on which the tumor cells or the fusion toxins were injected. *P<0.05; **P<0.01; ***P<0.001; ****P<0.0001; ns: not significant.
FIG. 7B presents the data from a further in vivo efficacy analysis of the human EGF fusion toxins. […] The mice were euthanized on day 8 after tumor cell injection when the first mouse in the DT390 group reached the end point. The photograph depicts tongue squamous cell carcinomas (SCCs) (circled by the black dotted lines). Scale bar: 1 cm. FIG. 7C presents the FIG. 7B tumor volume comparison of the treatment groups. *P<0.05; **P<0.01
as §1, §2
To assess the in vivo efficacy of the human EGF fusion toxins to the xenograft tumors in the head and neck area, a tongue-orthotopic tumor-bearing NSG mouse model was used as a second efficacy model. Eight million HNSCC Cal27 cells were injected into the tongue at day 0. The EGF fusion toxins were injected intraperitoneally (IP) starting on day 4 at 50 μg/kg daily for 10 consecutive days. Since the resulting tongue-orthotopic tumors severely affected the animal's eating and drinking, animals were euthanized earlier. Therefore, the median survival prolongation was not as impressive as that observed in the flank-xenograft solid tumor-bearing NSG mouse model. […] To further characterize the effect of the EGF fusion toxins on tumor volume, the orthotopic tongue SCC model study was repeated, and the mice were euthanized 8 days after tumor cell inoculation.

[4] = test system: 14 EGFR+ HNSCC cells lines; experiment: Flow cytometry binding, all 14 EGFR+ HNSCC cell lines together; parameters: species or system human; conditions: mean over the 14 EGFR+ HNSCC cell lines
NSG mice = experiment: In vivo off-target toxicity in NSG mice
Description: FIGS. 12A-C presents representative images of necropsy results for NSG mice treated with mono-EGF-IT or bi-EGF-IT without tumor cell injection. Mice were euthanized on day 13 after the first injection of the fusion toxins. The images show representative gross changes observed in the ear (FIG. 12A), liver (FIG. 12C) and gastrointestinal tract of a representative NSG mouse treated with mono-EGF-IT compared to a representative NSG mouse treated with bi-EGF-IT.
as §2
The main side effects of targeting EGFR are caused by off-target effects, because EGFR is expressed in many healthy tissues, include skin, liver, and gastrointestinal tract (Widakowich et al., (2007), Oncologist, 12, 1443-1455). […] To further assess these toxic effects, another in vivo toxicity study in non-tumor-bearing mice was performed. NSG mice were treated with mono-EGF-IT or bi-EGF-IT, without tumor cell injection.

[5] = non-tumor-bearing NSG mice, 13 days after the first injection

Substance	Median survival time [1]	Median survival time [2]	Median survival time [3]	number of metastases in the lungs ([2]; second cohort, euthanized 10 days after tumor cell inoculation)	Kd [4]	adverse effects observed in treated mice (NSG mice; mice of the efficacy studies)	general condition and skin (NSG mice; non-tumor-bearing NSG mice)	necropsy, gastrointestinal tract (NSG mice; [5])	necropsy, liver (NSG mice; [5])
DT390	14 days and 13 days	8.5 days	10 days	–	–	–	–	–	–
Mono-EGF IT: DT390 joined by G4S to one human EGF domain, C-terminal 6×His tag; SEQ ID NO: 15	14 days	32 days	11 days	reduced compared with the DT390-negative control group	12.2 nM	generally unhealthy and lethargic and developed skin rashes	generally unhealthy and lethargic with skin rashes	mildly pale with scant ingesta in the stomach or cecum	diffuse pale livers with moderate reticular patterns
